In patent US8608919B2, “Impedimetric sensor and applications thereof” (Consejo Superior de Investigaciones Científicas, priority 2007, dated 2013):
Converted amounts (≈) assume the structure as drawn.

Tests used:
Type in all cases: binding, rabbits of the New Zealand variety
[1] = tested on: specific sulfamide antiserum; assay: ELISA immunoassay, calibration with sulfapyridine; details: [Ab] 1/8000, [AT] 0.625 μg/ml, from four-parameter fit of calibration curve
[2] = tested on: specific sulfamide antiserum (#155); assay: Impedimetric immunosensor of the invention, competitive immunoassay calibrated with sulfapyridine; details: Sensor; [Ab] 1/2000; [AT] 0.8 μg/ml (2d-BSA); from four-parameter fit of calibration curve
Protocol: Before proceeding to the functionalization, the electrodes were cleaned in a solution of 70% absolute ethanol and 30% Milli-Q water. Afterwards, the devices were submerged in a solution of 2.5% NaOH and Milli-Q water for 10 minutes, followed by a rinsing in 100 mL of Milli-Q water, in order to neutralize the action of the NaOH. Finally, the electrodes were cleaned in ethanol and dried in nitrogen current.
The electrodes were introduced into a GPTS [(3-glycidoxipropil) trimethoxisilane] solution with 2.5% ethanol anhydride for three hours, at ambient temperature and with orbital agitation. After this time had passed, the devices were washed in ethanol and dried in nitrogen current. […]
Biological molecular receptors (antibodies) were designed and produced to analyse antibiotics from the family of sulfamides. […] The covalent bonding of the haptens or antigens and the quantification of the number of the remainder of antigens bonded to the protein was carried out by means of a mass spectrometer. […]
Sulfapyridine pattern solutions prepared in PBST (0.64 nM-50000 nM, in PBST) were added to the electrodes (150 μL/electrode), followed by a solution with the specific sulfamide antiserum (#155) obtained (1/2000 in PBST, 150 μL/electrode). […] The reaction was measured in a low conductivity solution. […]

[3] = tested on: antiserums produced for sulphonamide-type antibiotics; assay: Direct ELISA format with HRP enzymatic tracers of competition haptens (preliminary studies)
Description: Biological molecular receptors (antibodies) were designed and produced to analyse antibiotics from the family of sulfamides. The preparation of the biological receptors was approached by means of the design of immunization haptens using molecular modelling strategies. As a consequence of these studies, the synthesis of 2 haptens or antigens was proposed. One of them (hapten 1) kept the greater part of the structure of the sulfamides, while the second (hapten 2) was only a fragment which conserved the part common to most of the compounds of this family of antibiotics. The two haptens were combined to the HCH (horseshoe crab hemocyanin) protein and to the BSA (bovine serum albumin) protein by using methods described in the literature. The covalent bonding of the haptens or antigens and the quantification of the number of the remainder of antigens bonded to the protein was carried out by means of a mass spectrometer. Following this, rabbits of the New Zealand variety were immunised with these antigens by applying a six-month long immunisation protocol, during which the progress of the immune response was controlled by means of extracting small blood samples.
With the aim of evaluating the avidity of the antiserums produced by the sulphonamide-type antibiotics, it was necessary to establish a competitive-type immunochemical assay. […]

| SMILES | IC50 [1] [nM] | IC50 [2] [nM] | IC50 [3] [ng/mL] |
| --- | --- | --- | --- |
| Nc1ccc(S(=O)(=O)Nc2ccccn2)cc1 [sulfapyridine] | 9.29 | 14 | – |
| Nc1ccc(S(=O)(=O)Nc2cnccn2)cc1 [sulfapyrazine] | – | – | ~9 (≈ 0.036 µM) |
